Data taken from US7731985B2, “4-aminopyrimidines and their use for the antimicrobial treatment of surfaces” (Ciba Specialty Chemicals Corporation, priority 2002, dated 2010).

Columns and labels:
Experiment in all cases: MIC in microtitre plates (Example 10)
Type in all cases: cell-based
Design in all cases: unit not given here
Conditions in all cases: microtitre plate, 48 hours at 37° C., ≦20% growth
[1] = tested on: Escherichia coli NCTC 8196 (=EC)
Experimental: (§1) Determination of the Minimum Inhibitory Concentration (MIC Value) in Microtitre Plates Casein/soymeal peptone broth for preparation of pre-cultures of test bacteria and yeast Bacteria: • Pseudomonas aeruginosa CIP A-22 (=PA) • Escherichia coli NCTC 8196 (=EC) • Staphylococcus aureus ATCC 9144 (=SA) • Candida albicans ATCC 10231 (=CA) The test substances are pre-dissolved in dimethyl sulfoxide (DMSO) and tested in a dilution series of 1:2. Bacteria and yeast are cultured overnight in CASO broth. All the test organism suspensions are adjusted to an organism count of 1-5×10^6 CFU/ml using […] sodium chloride solution. The test substances are pre-pipetted into microtitre plates in amounts of 8 μl per well. The pre-adjusted organism suspensions are diluted 1:100 in CASO broth and are added in amounts of 192 μl per well to the test substances. The test batches are incubated for 48 hours at 37° C. The incubation, the growth is determined on the basis of the turbidity of the test batches (optical density) at 620 nm in a microplate reader. The minimum inhibitory concentration (MIC value) is the concentration of substance at which (compared to the growth of the control) an appreciable inhibition of growth (≦20% growth) of the test organisms is observed. Three microtitre plates are used for each test organism and substance concentration. All the substances are tested in duplicate.

[2] = tested on: Candida albicans ATCC 10231 (=CA)
Experimental: as §1

[3] = tested on: Pseudomonas aeruginosa CIP A-22 (=PA)
Experimental: as §1

[4] = tested on: Staphylococcus aureus ATCC 9144 (=SA)
Experimental: as §1

MIC EC [1]	MIC CA [2]	MIC PA [3]	MIC SA [4]	SMILES
15	15	>120	<3.75	CCCCCCCCCCNc1cc(C)nc(-c2csc(C)n2)n1 [compound 106]
120	30	>120	60	CCCCC(CC)CNc1cc(C)nc(C)n1 (stereo not drawn) [compound 135]
>120	60	>120	7.5	CCCCC(CC)CNc1cc(C)nc(-c2ccc(C)cc2)n1 (stereo not drawn) [compound 136]
>120	>120	>120	15	CCCCC(CC)CNc1cc(C)nc(-c2ccccc2)n1 (stereo not drawn) [compound 133]
15	15	>120	15	CCCCCCCCCCNc1cc(C)nc(-c2cccs2)n1 [compound 98]
15	7.5	>120	7.5	CCCCCCCCCCCCCNc1cc(C)nc(-c2cccnc2)n1 [compound 37]
15	30	>120	15	Fc1ccc(-c2nc(-c3ccccc3)nc(N3CCCNCC3)c2-c2ccccc2)cc1 [compound 7]
>120	120	>120	7.5	CCCCCCNc1cc(C)nc(-c2ccc(C)c(F)c2)n1 [compound 119]
30	15	>120	<3.75	CCCCCCCCCCCCCCCCNc1cc(C)nc(-c2cccnc2)n1 [compound 39]
>120	>120	>120	30	CCCCN(CCCC)c1cc(C)nc(-c2ccncc2)n1 [compound 121]
60	30	>120	15	CCCCCCCCCCNc1cc(C)nc(-c2ccc(C)cc2)n1 [compound 103]
15	30	>120	15	NCCCOCCCCOCCCNc1nc(-c2ccccc2)nc(-c2ccc(F)cc2)c1-c1ccccc1 [compound 9]
7.5	7.5	>120	<3.75	CCCCCCCCCCNc1cc(C)nc(C2CC2)n1 [compound 104]
>120	120	>120	120	CCCCN(C)c1cc(C)nc(C)n1 [compound 126]
>120	>120	>120	120	Cc1cc(NC(C)CC(C)C)nc(-c2ccc(C)c(F)c2)n1 (stereo not drawn) [compound 148]
15	7.5	>120	<3.75	CCCCCCCCNc1cc(C)nc(-c2ccc(C)c(F)c2)n1 [compound 70]
7.5	<3.75	>120	<3.75	CCCCCCCCCCCCCCNc1cc(C)nc(-c2cccs2)n1 [compound 73]
30	15	>120	30	CCCCCCCCCCCCNc1cc(C)nc(-c2ccc(C)cc2)n1 [compound 91]
60	30	>120	30	CCCCC(CC)CNc1cc(C)nc(C(C)C)n1 (stereo not drawn) [compound 138]
120	30	>120	7.5	CCCCCCCCNc1cc(C)nc(-c2cccnc2)n1 [compound 34]
60	30	>120	15	CCCCCCCCCCCCCCNc1cc(C)nc(-c2ccccc2)n1 [compound 76]
